Drawing on PMC6522510 (Nature Communications, 2019), this text covers EC50 for 17 molecules.

pEC50: −log10 of the molar value.

What all share (assay): cells
Holding throughout (design): species or system AML cell lines (8); Secondary HTS, 10-point dose-response in triplicate, Cell Titer Glo viability, four-parameter fit EC50

The test system of one test is MOLM-13. Particulars: Homo sapiens, MOLM-13, 72 h, read-out: MOLM-13.
For the next test, the system named is MV4-11. The following applies: Homo sapiens, MV4-11, 72 h, read-out: MV4-11.
The subject of another test is CHRF288-11. Particulars: 72 h, read-out: CHRF288-11.
For another test, the system named is CMK. The following applies: Homo sapiens, CMK, 72 h, read-out: CMK.
A further test has as its system CMS. Particulars: 72 h, read-out: CMS.
A further test relates to M07e. The following applies: M-07e, 72 h, read-out: M07e.
In a further test the test system is ML-2. The following applies: Homo sapiens, ML-2, 72 h, read-out: ML-2.
The subject of another test is U937. Particulars: Homo sapiens, U-937, 72 h, read-out: U937.

Take `CCc1c2c(nc3ccc(O)cc13)-c1cc3c(c(=O)n1C2)COC(=O)[C@]3(O)CC` [SJ000311679, SN-38]: the pEC50 in the test on MOLM-13 was 8.25; with MV4-11 it was 6.62; with CHRF288-11, 8.02; with CMK, 7.63; in the test with CMS it was less than 5.00; in the test on M07e it was 7.35. Moreover, the pEC50 in the test on ML-2 was 8.60; with U937, 7.43.
In the case of `COC1=C2C[C@@H](C)C[C@H](OC)[C@H](O)[C@@H](C)/C=C(\C)[C@H](OC(N)=O)[C@@H](OC)/C=C\C=C(/C)C(=O)NC(=CC1=O)C2=O` [SJ000796035, GELDANOMYCIN], the pEC50 in the test on MOLM-13 was 7.68; with MV4-11, 8.01; in the test with CHRF288-11, less than 5.00; in the test with CMK it was less than 5.00; in the test on CMS, less than 5.00; with M07e, less than 5.00. Also, the pEC50 in the test with ML-2 and with U937 was less than 5.00 each time.
In the case of `O=C(Nc1cc(Cl)cc2c1[nH]c1cnccc12)c1cccnc1` [SJ000834145, PS-1145], the pEC50 with MOLM-13, in the test with MV4-11, with CHRF288-11, with CMK, in the test on CMS and in the test with M07e was less than 5.00 in each case. For the same molecule, the pEC50 in the test with ML-2 and in the test on U937 was less than 5.00 each time.
For the molecule `c1ccc2c(-c3cnn4cc(-c5ccc(N6CCNCC6)cc5)cnc34)ccnc2c1` [SJ000834146, LDN-193189], the pEC50 was 6.72 in the test on MOLM-13; 6.72 in the test with MV4-11; 6.44 in the test on CHRF288-11; 5.96 with CMK; 6.28 in the test with CMS; 6.21 in the test on M07e. In addition, the pEC50 with ML-2 was 6.74; with U937, 6.72.
As for `CC(C)(O)[C@@H]1CC[C@](C)([C@H]2[C@@H](O)C[C@@]3(C)[C@@H]4C[C@H](O[C@@H]5O[C@H](CO)[C@@H](O)[C@H](O)[C@H]5O)[C@H]5C(C)(C)[C@@H](O[C@@H]6OC[C@@H](O)[C@H](O)[C@H]6O)CC[C@@]56C[C@@]46CC[C@]23C)O1` [SJ000785909, ASTRAGALOSIDE IV], the pEC50 with MOLM-13 is 5.37; in the test with MV4-11, less than 5.00; in the test on CHRF288-11, 6.09; with CMK, less than 5.00; in the test on CMS it was less than 5.00; in the test on M07e it was less than 5.00. Besides, the pEC50 was 6.06 with ML-2 and less than 5.00 with U937.
Turning to `COc1ccc(Cl)c(Nc2nc3ccccc3nc2NS(=O)(=O)c2cccc(NC(=O)C(C)(C)N)c2)c1` [XL147], the pEC50 in the test on MOLM-13, in the test with MV4-11, in the test on CHRF288-11, with CMK, in the test with CMS and in the test on M07e was less than 5.00 throughout. In addition, the pEC50 in the test with ML-2 and with U937 was less than 5.00 in each case.
For the molecule `CCN(CCO)CCCC(C)Nc1ccnc2cc(Cl)ccc12` (stereo not shown) [HYDROXYCHLOROQUINE], the pEC50 in the test with MOLM-13, in the test on MV4-11, in the test with CHRF288-11, with CMK, with CMS and with M07e was less than 5.00 throughout. The pEC50 in the test on ML-2 and with U937 was less than 5.00 throughout.
Regarding `CCC1(c2ccc(N)cc2)CCC(=O)NC1=O` (stereo not shown) [AMINOGLUTETHIMIDE], the pEC50 in the test with MOLM-13, in the test on MV4-11, in the test with CHRF288-11, in the test with CMK, in the test on CMS and in the test with M07e was less than 5.00 each time. Besides, the pEC50 in the test with ML-2 and in the test on U937 was less than 5.00 throughout.
As for `CS(=O)(=O)CCNCc1ccc(-c2ccc3ncnc(Nc4ccc(OCc5cccc(F)c5)c(Cl)c4)c3c2)o1` [LAPATINIB], the pEC50 in the test with MOLM-13, in the test with MV4-11, in the test on CHRF288-11, with CMK, in the test with CMS and with M07e was less than 5.00 in each case. The pEC50 in the test on ML-2 and with U937 was less than 5.00 throughout.
As for `Cc1cccc(-c2nn3c(c2-c2ccnc4ccc(C(N)=O)cc24)CCC3)n1` [LY2157299], the pEC50 with MOLM-13, with MV4-11, with CHRF288-11, in the test on CMK, in the test on CMS and in the test on M07e was less than 5.00 each time. Further, the pEC50 in the test with ML-2 and in the test on U937 was less than 5.00 throughout.
For `O=C(c1cn(Cc2cncn2Cc2ccc(Br)cc2)cc1-c1cccc2ccccc12)N1CCOCC1` [SJ000803701, LB 42708], the pEC50 is 5.60 in the test with MOLM-13; 5.30 with MV4-11; less than 5.00 with CHRF288-11; less than 5.00 in the test on CMK; 5.47 in the test with CMS; less than 5.00 with M07e. The results for the pEC50 in the test on ML-2 and in the test on U937 were 5.64 and less than 5.00, respectively.
For `COc1cc2ncnc(-n3nc(-c4ccccn4)nc3N)c2cc1OC` [SJ000510891, CP-466722], the pEC50 with MOLM-13 is less than 5.00; in the test on MV4-11, less than 5.00; in the test on CHRF288-11, less than 5.00; in the test with CMK, less than 5.00; in the test with CMS it was less than 5.00; in the test on M07e, 6.20. The pEC50 in the test with ML-2 and with U937 was less than 5.00 throughout.
With `NC(=O)c1cccc2ncc(-c3ccc(Cl)cc3)nc12` [SJ000784278, PARP INHIBITOR XII], the pEC50 in the test on MOLM-13 was 5.60; in the test with MV4-11 it was less than 5.00; with CHRF288-11 it was less than 5.00; in the test with CMK it was less than 5.00; in the test on CMS, less than 5.00; in the test on M07e it was less than 5.00. In addition, the pEC50 in the test on ML-2 and in the test with U937 was less than 5.00 each time.
Turning to `CCN1CCN(c2ccc(Nc3cc(N(C)C(=O)Nc4c(Cl)c(OC)cc(OC)c4Cl)ncn3)cc2)CC1` [NVP-BGJ398], the pEC50 in the test with MOLM-13, in the test with MV4-11, in the test on CHRF288-11, in the test on CMK, with CMS and with M07e was less than 5.00 throughout. Besides, the pEC50 with ML-2 and in the test on U937 was less than 5.00 throughout.
Regarding `Cc1ccc(NCCCc2ccccc2)c(N)c1` [SJ000834143, JSH-23], the pEC50 with MOLM-13 was less than 5.00; with MV4-11 it was less than 5.00; in the test with CHRF288-11, less than 5.00; with CMK, 5.06; in the test with CMS, less than 5.00; in the test on M07e, less than 5.00. Also, the pEC50 with ML-2 and with U937 was less than 5.00 throughout.
`CCOc1cc(N2CCC(O)CC2)ccc1Nc1ncc2c(n1)N(C)c1ccccc1C(=O)N2C` [SJ000821586, XMD 8-92]: the pEC50 with MOLM-13 was 5.03; in the test with MV4-11, 5.49; in the test on CHRF288-11, less than 5.00; in the test with CMK it was 5.70; with CMS, less than 5.00; in the test on M07e, less than 5.00. Also, the pEC50 with ML-2 and in the test with U937 was less than 5.00 each time.
For the molecule `COc1ccc(/C=C/c2ccccc2F)cc1` [SJ000796052, CAY10512], the pEC50 with MOLM-13, in the test on MV4-11, in the test on CHRF288-11, in the test with CMK, in the test on CMS and in the test with M07e was less than 5.00 throughout. Further, the pEC50 in the test on ML-2 and in the test with U937 was less than 5.00 in each case.
